Reference: US20050064382A1, “Method of prevention of lysosomal leakage in eukaryotic cells by using 6-methyluracil based water-soluble compounds and method of producing thereof” (priority 2002, published 2005)

Assays:
[1] = test system: rat thyroid-derived cell line FRTL-5; test: Storage of FRTL-5 cells at low temperature, viability by well bottom coverage; type: cell-based
Description: (§1) The goal of the study was to assess the influence of Glucural on cell recovery of different mammalian cells suspended in various cryo-protectors. A single layer of the rat thyroid-derived cell line FRTL-5 was grown in VPF-12 medium containing 10% calf serum (C.S.) in Petri dishes (10 cm) stored in an environment of 5% CO2, 100% humidity and at 37° C. Cell coverage on the Petri dish bottom reached 80-90% over 6-8 days. A single-layer cell culture of the cell line from the anterior lobe of the pituitary gland (corticotrophs) of ATT-20 was grown in similar fashion but in D-MEM medium containing 10% C.S.
(§2) After exposure, cell suspensions were melted quickly in aliquots with cell suspension equal to 0.2 or 0.4 ml per well. The growing period varied depending on conditions of cell storage. All trials were performed in duplicate. Cell viability was estimated by the percentage of the well bottom covered by cells.
(§3) The same method was used here as in tests with MEL cells. Cryo-protectors used were not optimal for FRTL-5 and ATT-20 cells. Conditions of freezing were not optimal in assays # 1, 5 and 6.

[2] = test system: immortal human monocytes (THP-1 cells); test: Short-term growth of THP-1 cells in 10% DMSO (trypan-blue test); type: cell-based
Description: Percentage of dead cells (trypan-blue test) and concentrations of live cells (×1,000,000 cells/ml) were determined. The growth medium was RPMI 1640 with fetal serum and other supplements.

[3] = test system: ATT-20 cells (anterior lobe of the pituitary gland, corticotrophs); test: Storage of ATT-20 cells at low temperature, viability by well bottom coverage; type: cell-based; settings: 10% Glycerol
Description: as §1, §2, §3

MEL cells [4] = test: Cell recovery after short-term and long-term storage at −135° C.; type: cell-based, mouse; settings: for numbers of cells per ml, Short-Term Storage: 3 days at −135° C.; for numbers of cells per ml, Long-Term Storage: six weeks at −135° C.
Description: The cells were then brought to −135° C. over a two-hour period, and stored at this temperature for 3 days (short term) or six weeks (long term). The cells were then thawed quickly by incubation at 37° C., washed twice with growing medium, re-suspended in 5 ml and incubated at 37° C. for 24 hours. The numbers of cells per ml. is x 10^4, two different assays. […]

MEL cells [5] = test: Moderate damage: storage three days at −135° C. then growth in 1% DMSO; type: cell-based, mouse; settings: 24 hours
Description: The cells were then brought to −135° C. over a two-hour period and stored at this temperature for 3 days. […] The number of cells per ml. is x 10^4, columns represent different assays.

THP-1 cells = test: Longer-duration growth of THP-1 cells after DMSO shock and starvation, live cells; type: cell-based, human
Description: Growth was measured after the administration of “DMSO Shock” and without a change of medium. […] Trypan-blue test was used: the number of live cells per 0.1 ml (based on 4 counting iterations).

[6] = 10% DMSO plus Glucural 10 mkg/ml, 4.5 hrs
[7] = 10% DMSO plus Glucural 10 mkg/ml, 24 hrs
[8] = 10% DMSO plus Glucural 20 mkg/ml, 4.5 hrs
[9] = 10% DMSO plus Glucural 20 mkg/ml, 24 hrs
[10] = 10% DMSO plus Glucural 50 mkg/ml, 4.5 hrs
[11] = 10% DMSO plus Glucural 50 mkg/ml, 24 hrs

Substance: complex of 2,4-dihydroxy-6-methylpyrimidine with N-methyl-D-glucamine [Glucural]
- Percentage of well bottom covered by cells ([1]; #1 FRTL-5 (4 days), 10% Glycerol, −70° C., Glucural 100 mg/ml): 90-100%
- Percentage of well bottom covered by cells ([1]; #1 FRTL-5 (4 days), 10% Glycerol, −70° C., Glucural 200 mg/ml): 90-100%
- Percentage of well bottom covered by cells ([1]; #2 FRTL-5 (36 days), 10% Glycerol, −190° C., Glucural 100 mg/ml): 10-15%
- Percentage of well bottom covered by cells ([1]; #3 FRTL-5 (4 days), 50% C.S., 0° C., 30 min, Glucural 100 mg/ml): 60-70%
- Percentage of well bottom covered by cells ([1]; #3 FRTL-5 (4 days), 50% C.S., 0° C., 30 min, Glucural 200 mg/ml): 60-70%
- Percentage of dead cells (trypan-blue test) [2, 6]: 13.3 ± 1.3%
- concentrations of live cells [2, 6]: 1.06 ± 0.08 ×1,000,000 cells/ml
- Percentage of dead cells (trypan-blue test) [2, 7]: 40.5 ± 0.5%
- concentrations of live cells [2, 7]: 2.21 ± 0.26 ×1,000,000 cells/ml
- Percentage of dead cells (trypan-blue test) [2, 8]: 2.6 ± 2.0%
- concentrations of live cells [2, 8]: 0.52 ± 0.05 ×1,000,000 cells/ml
- Percentage of dead cells (trypan-blue test) [2, 9]: 36.1 ± 0.75%
- concentrations of live cells [2, 9]: 0.86 ± 0.04 ×1,000,000 cells/ml
- Percentage of dead cells (trypan-blue test) [2, 10]: 17.2 ± 0.4%
- concentrations of live cells [2, 10]: 0.65 ± 0.03 ×1,000,000 cells/ml
- Percentage of dead cells (trypan-blue test) [2, 11]: 39.5 ± 1.1%
- concentrations of live cells [2, 11]: 1.31 ± 0.02 ×1,000,000 cells/ml
- Percentage of well bottom covered by cells ([3]; #4 AtT-20 (3 days), −190° C., Glucural 50 mg/ml): 50-60%
- Percentage of well bottom covered by cells ([3]; #4 AtT-20 (3 days), −190° C., Glucural 100 mg/ml): 80-90%
- Percentage of well bottom covered by cells ([3]; #5 AtT-20 (44 days), −70° C., Glucural 100 mg/ml): 40-50%
- Percentage of well bottom covered by cells ([3]; #5 AtT-20 (44 days), −70° C., Glucural 200 mg/ml): 30-40%
- Percentage of well bottom covered by cells ([3]; #6 AtT-20 (46 days), −70° C., additional melting freezing, Glucural 100 mg/ml): 20-30%
- Percentage of well bottom covered by cells ([3]; #6 AtT-20 (46 days), −70° C., additional melting freezing, Glucural 200 mg/ml): 10-20%
- effect during short-term storage (MEL cells [4]): little or no effect
- numbers of cells per ml, Short-Term Storage (MEL cells [4]; Glucural 10 mkg/ml): 34 ± 4 x 10^4
- numbers of cells per ml, Long-Term Storage (MEL cells [4]; Glucural 10 mkg/ml): 122 ± 8 x 10^4
- numbers of cells per ml, Short-Term Storage (MEL cells [4]; Glucural 25 mkg/ml): 38 ± 2 x 10^4
- numbers of cells per ml, Long-Term Storage (MEL cells [4]; Glucural 25 mkg/ml): 167 ± 3 x 10^4
- numbers of cells per ml, Short-Term Storage (MEL cells [4]; Glucural 50 mkg/ml): 33 ± 2 x 10^4
- numbers of cells per ml, Long-Term Storage (MEL cells [4]; Glucural 50 mkg/ml): 200 ± 12 x 10^4
- numbers of cells per ml, Short-Term Storage (MEL cells [4]; Glucural 100 mkg/ml): 37 ± 2 x 10^4
- numbers of cells per ml, Long-Term Storage (MEL cells [4]; Glucural 100 mkg/ml): 169 ± 15 x 10^4
- numbers of cells per ml, Short-Term Storage (MEL cells [4]; Glucural 200 mkg/ml): 56 ± 5 x 10^4
- numbers of cells per ml, Long-Term Storage (MEL cells [4]; Glucural 200 mkg/ml): 155 ± 14 x 10^4
- increase of cell survival rates during long-term storage (MEL cells [4]; optimal concentration of about 50 mkg/ml): over 3 times
- number of cells per ml, Moderate damage (MEL cells [5]; Glucural 25 mkg/ml): 58 ± 3 x 10^4
- number of cells per ml, Moderate damage (MEL cells [5]; Glucural 50 mkg/ml): 76 ± 1 x 10^4
- number of cells per ml, Moderate damage (MEL cells [5]; Glucural 100 mkg/ml): 82 ± 1 x 10^4
- number of cells per ml, Moderate damage (MEL cells [5]; Glucural 200 mkg/ml): 163 ± 3 x 10^4
- optimal dose for THP-1 cells (THP-1 cells): 25 mkg/ml
- number of live cells per 0.1 ml (THP-1 cells; B Control + Glucural 25 mkg/ml, assay #1, 5 days growing): 241 ± 24 per 0.1 ml
- number of live cells per 0.1 ml (THP-1 cells; B Control + Glucural 25 mkg/ml, assay #3, 4 days growing): 136 ± 5 per 0.1 ml
- number of live cells per 0.1 ml (THP-1 cells; B Control + Glucural 25 mkg/ml, assay #4, 4 days growing): 160 ± 22 per 0.1 ml
- number of live cells per 0.1 ml (THP-1 cells; D DMSO shock + Glucural 25 mkg/ml, assay #1, 5 days growing): 228 ± 48 per 0.1 ml
- number of live cells per 0.1 ml (THP-1 cells; D DMSO shock + Glucural 25 mkg/ml, assay #2, 6 days growing): 184 ± 19 per 0.1 ml
- number of live cells per 0.1 ml (THP-1 cells; D DMSO shock + Glucural 25 mkg/ml, assay #3, 4 days growing): 137 ± 6 per 0.1 ml
- number of live cells per 0.1 ml (THP-1 cells; D DMSO shock + Glucural 25 mkg/ml, assay #4, 4 days growing): 222 ± 42 per 0.1 ml
